Experimental data reported in US20060116400A1, “Oxazolidinone and/or isoxazoline derivatives as antibacterial agents” (AstraZeneca AB, priority 2002, published 2006).
≈ marks a conversion by molar mass, not a printed value.

Key:
Type in all cases: cell-based
[1] = system: Moraxella catarrhalis; assay: MIC, fastidious Gram negative organisms in Mueller-Hinton broth; conditions: Mueller-Hinton broth with hemin and NAD, 24 hours, 37° C., 5×10^4 CFU/well
Protocol: (§1) The following results were obtained on a standard in-vitro test system The activity is described in terms of the minimum inhibitory concentration (MIC) determined by the agar-dilution technique with an inoculum size of 10^4 CFU/spot. Typically, compounds are active in the range 0.01 to 256 μg/ml.
(§2) Streptococci and enterococci were tested on agar supplemented with 5% defibrinated horse blood, an inoculum of 10^4 CFU/spot and an incubation temperature of 37° C. in an atmosphere of 5% carbon dioxide for 48 hours—blood is required for the growth of some of the test organisms. Fastidious Gram negative organisms were tested in Mueller-Hinton broth, supplemented with hemin and NAD, grown aerobically for 24 hours at 37° C., and with an innoculum of 5×10^4 CFU/well

[2] = system: Haemophilus influenzae; assay: as above; conditions: Mueller-Hinton broth with hemin and NAD, 24 hours, 37° C., 5×10^4 CFU/well
Protocol: as §1, §2

[3] = system: Linezolid Resistant Streptococcus pneumoniae; assay: MIC, standard in-vitro test, agar with 5% horse blood; conditions: agar with 5% defibrinated horse blood, 48 hours
Protocol: as §1, §2

[4] = system: Streptococcus pneumoniae; assay: as above; conditions: agar with 5% defibrinated horse blood, 10^4 CFU/spot, 37° C., 5% carbon dioxide, 48 hours
Protocol: as §1, §2

[5] = system: Enterococcus faecium; assay: as above; conditions: agar with 5% defibrinated horse blood, 48 hours
Protocol: as §1, §2

[6] = system: Staphylococcus aureus MSQS; assay: MIC, standard in-vitro test, agar dilution; conditions: Staphylococcus aureus MSQS (methicillin sensitive and quinolone sensitive), 10^4 CFU/spot, 37° C., 24 hours
Protocol: as §1
(§3) Staphylococci were tested on agar, using an inoculum of 10^4 CFU/spot and an incubation temperature of 37° C. for 24 hours—standard test conditions for the expression of methicillin resistance.

[7] = system: Staphylococcus aureus MRQR; assay: MIC, standard in-vitro test, agar dilution; conditions: Staphylococcus aureus MRQR (methicillin resistant and quinolone resistant), 10^4 CFU/spot, 37° C., 24 hours
Protocol: as §1, §3

MIC [1]: 0.5 µg/mL (≈ 1.07 µM) | MIC [2]: 4 µg/mL (≈ 8.56 µM) | MIC [3]: 1 µg/mL (≈ 2.14 µM) | MIC [4]: 0.13 µg/mL (≈ 0.278 µM) | MIC [5]: 0.25 µg/mL (≈ 0.535 µM) | MIC [6]: 0.5 µg/mL (≈ 1.07 µM) | MIC [7]: 0.5 µg/mL (≈ 1.07 µM)
SMILES: O=C1O[C@@H](Cn2ccnn2)CN1c1ccc(-c2ccc(C3=NOC(CO)(CO)C3)cc2)c(F)c1 [Example 2, (5R)-3-{4′-(5,5-bis(Hydroxymethyl)-4,5-dihydroisoxazol-3-yl]-2-fluoro-1,1′-biphenyl-4-yl}-5-(1H-1,2,3-triazol-1-ylmethyl)-1,3-oxazolidin-2-one]
